Results from ChEMBL document CHEMBL1138598, “Interactions of curcumin with the PfATP6 model and the implications for its antimalarial mechanism” (Bioorg Med Chem Lett, 2009).

Columns and labels:
[1] = Binding affinity to Plasmodium falciparum ATPase6
[2] = Inhibition of Plasmodium falciparum ATPase6 expressed in Xenopus oocytes; type: cell-based; details: oocyte
Plasmodium falciparum = assay: Antimalarial activity against chloroquine-resistant Plasmodium falciparum FCK by [3H]hypoxanthine uptake; type: functional, organism-based

| SMILES | Kd [1] | Kd [2] | IC50 (Plasmodium falciparum) |
| --- | --- | --- | --- |
| COc1cc(/C=C/C(=O)CC(=O)/C=C/c2ccc(O)c(OC)c2)ccc1O (stereo in doubt; form 1) [CURCUMIN] | 1.15 µM | – | – |
| COc1cc(/C=C/C(=O)CC(=O)/C=C/c2ccc(O)c(OC)c2)ccc1O (stereo in doubt; form 2) [CURCUMIN] | 2.45 µM | – | – |
| C[C@@H]1CC[C@H]2[C@@H](C)C(=O)O[C@@H]3O[C@@]4(C)CC[C@@H]1[C@]32OO4 [ARTEMISININ] | – | 0.15 µM | 0.045 µM |
| COc1cc(/C=C/C(=O)CC(=O)/C=C/c2ccc(O)c(OC)c2)ccc1O [CURCUMIN] | – | – | 15 µM |
